According to PubChem BioAssay (NCI):
Several values for one entry are separate records, joined by “and”; a condition that tells them apart may be missing. Equal entries are not always repeated.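 Method: 48-hour compound exposure of cells in 96-well plates, five concentrations, linear interpolation of endpoints. The concentration for 50% growth inhibition is given as GI50. TGI marks complete inhibition of growth.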

Experiments:
Assay in all cases: NCI-60 cell line screen, 48 h
CCRF-CEM leukemia = tested on: CCRF-CEM leukemia
DU-145 prostate = tested on: DU-145 prostate
HCC-2998 colon = tested on: HCC-2998 colon
HOP-62 NSCLC = tested on: HOP-62 NSCLC
MALME-3M melanoma = tested on: MALME-3M melanoma
MCF7 breast = tested on: MCF7 breast
MOLT-4 leukemia = tested on: MOLT-4 leukemia
NCI-H460 lung = tested on: NCI-H460 lung
SF-539 CNS = tested on: SF-539 CNS
SN12C renal = tested on: SN12C renal

Row | SMILES | TGI (CCRF-CEM leukemia) [µM] | GI50 (DU-145 prostate) [µM] | TGI (DU-145 prostate) | TGI (HCC-2998 colon) [µM] | TGI (HOP-62 NSCLC) [µM] | TGI (MALME-3M melanoma) | GI50 (MCF7 breast) [µM] | TGI (MCF7 breast) [µM] | TGI (MOLT-4 leukemia) [µM] | TGI (NCI-H460 lung) [µM] | TGI (SF-539 CNS) [µM] | TGI (SN12C renal) [µM] | GI50 (CCRF-CEM leukemia) | GI50 (HCC-2998 colon) [µM] | GI50 (HOP-62 NSCLC) [µM] | GI50 (MALME-3M melanoma) [µM] | GI50 (MOLT-4 leukemia) [µM] | GI50 (NCI-H460 lung) [µM] | GI50 (SF-539 CNS) [µM] | GI50 (SN12C renal) [µM]
1 | CC1=C(C(=O)Nc2cc(F)c(F)cc2F)C(c2ccc(N(C)C)cc2)C(C(=O)Nc2cc(F)c(F)cc2F)=C(C)N1 | > 85.9 | 49.4 | > 100 µM | > 83 | > 100 | > 100 µM | 16.3 | > 100 | > 77.2 | > 100 | > 74.1 | > 100 | – | – | – | – | – | – | – | –
2 | O=C1/C(=C/c2ccccc2)CN(C(=O)/C=C/c2ccccc2)C/C1=C\c1ccccc1 | 9 | – | 40.9 µM | 14.2 | 48.9 | 34.1 µM | – | 3.83 | 35.4 | 39.3 | 24.8 | 16 | – | – | – | – | – | – | – | –
3 | O=NN(CC(=O)NNc1ccccc1)CC(=O)NNc1ccccc1 | > 100 | > 100 | > 100 µM | > 100 | > 100 | > 100 µM | 8.13 | > 100 | > 100 | > 100 | 10.1 | > 100 | 5 µM | 4.89 | > 100 | 42 | 4.04 | 4.34 | 2.84 | > 100
4 | COc1cc(/C=C/C(=O)c2cccc(-n3cc(-c4ccccc4)[nH]c3=O)c2)ccc1O | 5.33 | 2.32 | 5.37 µM | 4.21 | 15.3 | 17.1 µM | 1.94 | 6.65 | 6.28 | 8.68 | 5.78 | 12 | 1.76 µM | 1.92 | 4.6 | 5.25 | 2.49 | 3.01 | 2.19 | 3.02
5 | COc1cc2c(cc1OCCCN1CCN(CCCOc3cc4c(cc3OC)C(=O)N3C[C@H](F)C[C@H]3C=N4)CC1)N=C[C@@H]1C[C@@H](F)CN1C2=O | 1.49 | 0.083 | 6.16 µM | 0.357 | 0.0418 | 0.154 µM | < 0.0195 | > 32.7 | 1.68 | – | 1.23 | 12.2 | < 0.01 µM | 0.121 | 0.013 | 0.0334 | < 0.018 | < 0.01 | 0.0216 | 0.0139
6 | O=C(/C=C/c1cccc(Cl)c1)c1ccccc1 | 23.2 | 11.7 | 24.2 µM | 26.7 | 29.9 | 33.7 µM | 1.68 | 10.3 | 36.4 | 18 | 28.8 | 28.3 | 3.49 µM | 13 | 15.7 | 14.4 | 4.07 | 4.86 | 13.6 | 14.6
7 | O=c1oc2cc(O)ccc2cc1-c1nc2ccccc2o1 | > 100 | – | > 100 µM | > 100 | > 100 | > 100 µM | – | > 100 | > 100 | > 100 | > 100 | > 100 | – | – | – | – | – | – | – | –
8 | CCn1cnc(C[C@H](NC(=O)[C@@H](NC(=O)Nc2cc(C(F)(F)F)cc(C(F)(F)F)c2)C(C)(C)C)C(=O)OC)c1 | > 10 | > 10 | > 10 µM | > 10 | > 10 | > 10 µM | > 10 | > 10 | > 10 | > 10 | > 10 | > 10 | > 10 µM | > 10 | > 10 | > 10 | > 10 | > 10 | > 10 | > 10
9 | CCc1n(Cc2ccc3ccccc3c2)cc[n+]1Cc1ccc2ccccc2c1 | 4.34 | 0.965 | 4.23 µM | 1.85 | 3.65 | 1.3 µM | 0.384 | 1.8 | 2.99 | 2.15 | 2.3 | 2.12 | 0.922 µM | 0.518 | 1.42 | 0.247 | 0.829 | 0.724 | 0.8 | 0.572
10 | N#C/C(=C\c1ccccn1)c1nc2ccccc2o1 | 69.6 | 34.4 | > 100 µM | 50.2 | > 100 | > 100 µM | 16 | > 100 | 82.6 | > 100 | 66.5 | > 100 | 1.4 µM | 25.1 | > 100 | 25.2 | 24.6 | 31.7 | 23.8 | 32.5
11 | CC(C)C[C@H](NC(=O)[C@@H](N)Cc1cccc2ccccc12)B(O)O | – | 0.0736 | 6.14 µM and 1.15 µM | – | – | 0.426 µM and 0.0707 µM | 0.389 | 50 | – | – | – | – | 0.0724 µM and < 0.01 µM | 0.021 | 0.831 | 0.156 | 0.21 | 1.36 | 0.178 | 1.39
12 | O=C1/C(=C/c2ccc([N+](=O)[O-])s2)Oc2ccc(Br)cc21 | 0.961 | 1.43 | 2.9 µM | 1.68 | 4.3 | 1.6 µM | 0.309 | 1.87 | 3.82 | 1.63 | 0.517 | 2.93 | 0.31 µM | 0.443 | 1 | 0.347 | 0.461 | 0.396 | 0.212 | 0.567
13 | CN(COC(=O)C(C)(C)C)c1nc(N(C)COC(=O)C(C)(C)C)nc(N(C)COC(=O)C(C)(C)C)n1 | > 100 | – | > 100 µM | > 100 | > 100 | 98.5 µM | – | > 100 | > 100 | > 100 | > 100 | > 100 | – | – | – | – | – | – | – | –
14 | O=[N+]([O-])c1cc2c(ccc3ccccc32)o1 | > 35.6 | 0.341 | 4.81 µM | 0.823 | 4.92 | 0.368 µM | 0.212 | 3.01 | 73.9 | 1.06 | 2.97 | 22.7 | 0.47 µM | 0.252 | 1.31 | 0.175 | 0.47 | 0.276 | 0.617 | 0.568
